The target in the assay is HIV protease (Human immunodeficiency virus type 1 group M subtype B, UniProt P04585). Put plainly: biochemical.

A value given as a limit tells only on which side of the number the result lay.

Consider `CC(C)CN([C@H](CO)CCCCNC(=O)[C@H](Cc1ccc2ccccc2c1)NC(=O)N(C)C)S(=O)(=O)c1ccc(F)c(N)c1` [Example 86, (2S,5S)-N-{5-[(3-Amino-4-fluoro-benzenesulfonyl)-isobutyl-amino]-6-hydroxy-hexyl}-2-(3,3-dimethyl-ureido)-3-naphthalen-2-yl-propionamide], for which the Ki (as a rule, a dissociation constant, usually derived from enzyme kinetics or from competition with a known ligand) was under 3.8 nM. `CC(C)CN([C@H](CO)CCCCNC(=O)[C@H](Cc1ccc2ccccc2c1)NC(=O)C1CC1)S(=O)(=O)c1ccc(F)c(N)c1` [Example 87, (1S,5S)-Cyclopropanecarboxylic Acid (1-{5-[(3-Amino-4-fluoro-benzenesulfonyl)-isobutyl-amino]-6-hydroxy-hexylcarbamoyl}-2-naphthalen-2-yl-ethyl)-amide]: the Ki was under 3.8 nM. Compound `CC(C)CN([C@H](CO)CCCCNC(=O)[C@H](Cc1ccc2ccccc2c1)NC(=O)C1CCCCC1)S(=O)(=O)c1ccc(F)c(N)c1` [Example 88, (1S,5S)-Cyclohexanecarboxylic Acid (1-{5-[(3-Amino-4-fluoro-benzenesulfonyl)-isobutyl-amino]-6-hydroxy-hexylcarbamoyl}-2-naphthalen-2-yl-ethyl)-amide] showed a Ki of under 3.8 nM. As to `CC(=O)N[C@@H](Cc1ccc2ccccc2c1)C(=O)NCCCC[C@@H](CO)N(CC(C)C)S(=O)(=O)c1ccc(F)c(N)c1` [Example 89, (2S,5S)-2-Acetylamino-N-{5-[(3-amino-4-fluoro-benzenesulfonyl)-isobutyl-amino]-6-hydroxy-hexyl}-3-naphthalen-2-yl-propionamide], the Ki is under 3.8 nM. Turning to `CC(C)CN([C@H](CO)CCCCNC(=O)[C@H](Cc1ccc2ccccc2c1)NC(=O)OC(C)(C)C)S(=O)(=O)c1ccc(F)c(N)c1` [Example 90, (1S,5S)-(1-{5-[(3-Amino-4-fluoro-benzenesulfonyl)-isobutyl-amino]-6-hydroxy-hexylcarbamoyl}-2-naphthalen-2-yl-ethyl)-carbamic Acid tert-Butyl Ester], the Ki is 4 nM. `CC(C)CN([C@H](CO)CCCCNC(=O)[C@H](Cc1ccc2ccccc2c1)NC(=O)OC(C)(C)C)S(=O)(=O)c1ccc(N)c(F)c1` [Example 91, (1S,5S)-(1-{5-[(4-Amino-3-fluoro-benzenesulfonyl)-isobutyl-amino]-6-hydroxy-hexylcarbamoyl}-2-naphthalen-2-yl-ethyl)-carbamic Acid tert-Butyl Ester]: the Ki was under 3.8 nM.

Take `CC(C)CN([C@H](CO)CCCCNC(=O)[C@@H](NC(=O)N(C)C)C(c1ccccc1)c1ccccc1)S(=O)(=O)c1ccc(N)cc1` [Example 94, (2S,5S)-N-{5-[(4-Amino-benzenesulfonyl)-isobutyl-amino]-6-hydroxy-hexyl}-2-(3,3-dimethyl-ureido)-3,3-diphenyl-propionamide]: the Ki is under 3.8 nM.

In turn, `CC(C)CN([C@H](CO)CCCCNC(=O)[C@@H](NC(=O)OCc1ccccn1)C(c1ccccc1)c1ccccc1)S(=O)(=O)c1ccc(N)cc1` [Example 95, (1S,5S)-(1-{5-[(4-Amino-benzenesulfonyl)-isobutyl-amino]-6-hydroxy-hexylcarbamoyl}-2,2-diphenyl-ethyl)-carbamic Acid Pyridin-2-ylmethyl Ester] yielded a Ki of under 3.8 nM. `CC(C)CN([C@H](CO)CCCCNC(=O)[C@@H](NC(=O)c1ccccn1)C(c1ccccc1)c1ccccc1)S(=O)(=O)c1ccc(N)cc1` [Example 96, (1S,5S)-Pyridine-2-carboxylic Acid (1-{5-[(4-Amino-benzenesulfonyl)-isobutyl-amino]-6-hydroxy-hexylcarbamoyl}-2,2-diphenyl-ethyl)-amide]: the Ki was under 3.8 nM.

Turning to `CC(C)CN([C@H](CO)CCCCNC(=O)[C@@H](NC(=O)c1cnccn1)C(c1ccccc1)c1ccccc1)S(=O)(=O)c1ccc(N)cc1` [Example 97, (1S,5S)-Pyrazine-2-carboxylic Acid (1-{5-[(4-Amino-benzenesulfonyl)-isobutyl-amino]-6-hydroxy-hexylcarbamoyl}-2,2-diphenyl-ethyl)-amide], the Ki was under 3.8 nM.

For the compound `CC(C)CN([C@H](CO)CCCCNC(=O)[C@@H](NC(=O)c1ccc[nH]1)C(c1ccccc1)c1ccccc1)S(=O)(=O)c1ccc(N)cc1` [Example 98, (1S,5S)-Pyrrole-2-carboxylic Acid (1-{5-[(4-Amino-benzenesulfonyl)-isobutyl-amino]-6-hydroxy-hexylcarbamoyl}-2,2-diphenyl-ethyl)-amide], the Ki is under 3.8 nM.

As to `CC(C)CN([C@H](CO)CCCCNC(=O)[C@@H](NC(=O)Cc1cccnc1)C(c1ccccc1)c1ccccc1)S(=O)(=O)c1ccc(N)cc1` [Example 99, (2S,5S)-N-{5-[(4-Amino-benzenesulfonyl)-isobutyl-amino]-6-hydroxy-hexyl}-3,3-diphenyl-2-(2-pyridin-3-yl-acetylamino)-propionamide], the Ki was under 3.8 nM.

For `CC(C)CN([C@H](CO)CCCCNC(=O)[C@@H](NC(=O)OCc1cccnc1)C(c1ccccc1)c1ccccc1)S(=O)(=O)c1ccc(N)cc1` [Example 100, (1S,5S)-(1-{5-[(4-Amino-benzenesulfonyl)-isobutyl-amino]-6-hydroxy-hexylcarbamoyl}-2,2-diphenyl-ethyl)-carbamic Acid Pyridin-3-ylmethyl Ester], the Ki was under 3.8 nM. `CC(C)CN([C@H](CO)CCCCNC(=O)[C@@H](NC(=O)OCc1ccncc1)C(c1ccccc1)c1ccccc1)S(=O)(=O)c1ccc(N)cc1` [Example 101, (1S,5S)-(1-{5-[(4-Amino-benzenesulfonyl)-isobutyl-amino]-6-hydroxy-hexylcarbamoyl}-2,2-diphenyl-ethyl)-carbamic Acid Pyridin-4-ylmethyl Ester]: the Ki was under 3.8 nM. Consider `CC(C)CN([C@H](CO)CCCCNC(=O)[C@@H](NC(=O)c1ccc(O)cc1)C(c1ccccc1)c1ccccc1)S(=O)(=O)c1ccc(N)cc1` [Example 102, (1S,5S)-N-(1-{5-[(4-Amino-benzenesulfonyl)-isobutyl-amino]-6-hydroxy-hexylcarbamoyl}-2,2-diphenyl-ethyl)-4-hydroxy-benzamide], for which the Ki is under 3.8 nM. `CC(C)CN([C@H](CO)CCCCNC(=O)[C@@H](NC(=O)c1ccc(O)c([N+](=O)[O-])c1)C(c1ccccc1)c1ccccc1)S(=O)(=O)c1ccc(N)cc1` [Example 103, (1S,5S)-N-(1-{5-[(4-Amino-benzenesulfonyl)-isobutyl-amino]-6-hydroxy-hexylcarbamoyl}-2,2-diphenyl-ethyl)-4-hydroxy-3-nitro-benzamide]: the Ki was under 3.8 nM.

Take `CC(C)CN([C@H](CO)CCCCNC(=O)[C@@H](NC(=O)c1ccccc1O)C(c1ccccc1)c1ccccc1)S(=O)(=O)c1ccc(N)cc1` [Example 104, (1S,5S)-N-(1-{5-[(4-Amino-benzenesulfonyl)-isobutyl-amino]-6-hydroxy-hexylcarbamoyl}-2,2-diphenyl-ethyl)-2-hydroxy-benzamide]: the Ki was under 3.8 nM.

As to `CC(C)CN([C@H](CO)CCCCNC(=O)[C@@H](NC(=O)c1cccc(O)c1)C(c1ccccc1)c1ccccc1)S(=O)(=O)c1ccc(N)cc1` [Example 105, (1S,5S)-N-(1-{5-[(4-Amino-benzenesulfonyl)-isobutyl-amino]-6-hydroxy-hexylcarbamoyl}-2,2-diphenyl-ethyl)-3-hydroxy-benzamide], the Ki is under 3.8 nM.

The values above are taken from patent publication US6632816B1, “Aromatic derivatives as HIV aspartyl protease inhibitors” (Pharmacor Inc., priority 2002, dated 2003).
